Measured values from PubChem BioAssay (NCI).
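Briefly, cells in 96-well plates were exposed to five compound concentrations for 48 h, and endpoints were estimated by linear interpolation. TGI: concentration producing complete growth inhibition.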

System: COLO 205 colon
Assay: NCI anticancer screen, dose series, 48 h

Question: With `OCC1OC(NC(=S)NCCC(F)(F)C(F)(F)C(F)(F)C(F)(F)C(F)(F)C(F)(F)F)C(O)C(O)C1O` (configuration not stated) as the compound, how does the TGI read?
Answer: > 100 µM

Question: For `CSC1=N/C(=C\c2ccc(C)cc2)C(=O)N1`, which TGI is on record?
Answer: > 100 µM

Question: How did the TGI turn out when `CC1=CC[C@H](C[C@H](C#CCCCC2OCCO2)O[Si](C(C)C)(C(C)C)C(C)C)C(=O)CC1` was run?
Answer: > 100 µM

Question: With `CC1=NN(c2cccc(S(=O)(=O)O)c2)C2(C1)C(Cl)C(=O)N2c1nc2ccccc2s1` (configuration not stated) as the compound, how does the TGI read?
Answer: 24.8 µM

Question: `[O-][n+]1nc(N2CCOCC2)nc2ccccc21` was tested. Which TGI did it give?
Answer: > 100 µM

Question: With `COc1ccc(NC(=S)Nc2cc(C)ccn2)cc1` as the compound, how does the TGI read?
Answer: > 100 µM

Question: `Cc1sc2nc(N(C)C)oc(=O)c2c1C` was tested. Which TGI did it give?
Answer: > 100 µM

Question: With `Cc1cccc(N/C(=C(/C(Cl)=C(Cl)Cl)[N+](=O)[O-])n2nnc3ccccc32)c1` as the compound, how does the TGI read?
Answer: 32.8 µM

Question: How did the TGI turn out when `NC(CSS(=O)(=O)O)=NC1CC2CCC1C2` (configuration not stated) was run?
Answer: > 100 µM

Question: With `Cc1cn(C2OC(CO[Si](C)(C)C(C)(C)C)/C(=C\C#N)C2O[Si](C)(C)C(C)(C)C)c(=O)[nH]c1=O` (configuration not stated) as the compound, how does the TGI read?
Answer: > 100 µM

Question: For `C[C@]12CCC(O)CC1=CC[C@@H]1[C@@H]2CC[C@]2(C)C(O)[C@H](n3ccnc3)C[C@@H]12` (some centres not stated), which TGI is on record?
Answer: > 100 µM

Question: `O=C(CC(O)(C(F)(F)F)C(F)(F)F)C(c1ccccc1)C(O)(C(F)(F)F)C(F)(F)F` (configuration not stated) was tested. Which TGI did it give?
Answer: > 100 µM

Question: `CC(C)CCCC(C)[C@H]1CC[C@H]2n3c(nnc3-c3ccccc3)CCC[C@]12C` (some centres not stated) was tested. Which TGI did it give?
Answer: 14.8 µM

Question: How did the TGI turn out when `OC1=C2c3ccccc3NC2Oc2cc(F)ccc21` (configuration not stated) was run?
Answer: 27.6 µM

System: EKVX NSCLC
Assay: NCI anticancer screen, dose series, 48 h

Question: `CCOc1cccc(C=Nc2ccccc2SSc2ccccc2N=Cc2cccc(OCC)c2O)c1O` was tested. Which TGI did it give?
Answer: 19 µM

Question: Which TGI does the source give for `Cc1c2c(cc3c1C(=O)C(=O)C([C@@H](C)CO)=C3O)C(C)(C)CCC2` here?
Answer: > 100 µM

Question: `C[N+]12CCCCC1C(COc1cccc3cccnc13)CCC2` (configuration not stated) was tested. Which TGI did it give?
Answer: > 100 µM

Question: How did the TGI turn out when `Cc1ccc(S(=O)(=O)NC(=O)NCc2ccc(S(N)(=O)=O)cc2)cc1` was run?
Answer: > 100 µM

Question: `NC(=O)NC1NC(=O)NC1=O` (configuration not stated) was tested. Which TGI did it give?
Answer: > 100 µM

Question: Which TGI does the source give for `CC[C@@]1(O)C(=O)OCc2c1cc1n(c2=O)Cc2c-1nc1ccccc1c2/C=N\NC(=O)C[n+]1ccccc1` here?
Answer: > 100 µM

Question: How did the TGI turn out when `COc1ccc(CC2Cc3ccccc3CCN2)cc1OC` (configuration not stated) was run?
Answer: > 50 µM

Question: For `CN(C)CCn1c(=O)c2ccc(NCCNCCO)c3c(=O)c4ccccc4n(c1=O)c23`, which TGI is on record?
Answer: 2.41 µM

Question: For `CSC1=N/C(=C\c2ccc(C)cc2)C(=O)N1`, which TGI is on record?
Answer: > 100 µM

Question: For `COc1cc2c(cc1OCCCNC(=O)c1cc3ccccc3[nH]1)N=C[C@@H]1CCCN1C2=O`, which TGI is on record?
Answer: 5.68 µM

Question: With `COC(=O)/C(C)=N/NC(=S)SC` as the compound, how does the TGI read?
Answer: > 100 µM

Question: With `CC1=CC[C@H](C[C@H](C#CCCCC2OCCO2)O[Si](C(C)C)(C(C)C)C(C)C)C(=O)CC1` as the compound, how does the TGI read?
Answer: > 100 µM

Question: For `CC1=NN(c2cccc(S(=O)(=O)O)c2)C2(C1)C(Cl)C(=O)N2c1nc2ccccc2s1` (configuration not stated), which TGI is on record?
Answer: 26.7 µM

Question: Which TGI does the source give for `[O-][n+]1nc(N2CCOCC2)nc2ccccc21` here?
Answer: > 100 µM

Question: How did the TGI turn out when `COc1ccc(NC(=S)Nc2cc(C)ccn2)cc1` was run?
Answer: > 100 µM

Question: With `Cc1sc2nc(N(C)C)oc(=O)c2c1C` as the compound, how does the TGI read?
Answer: > 100 µM

Question: With `Cc1cccc(N/C(=C(/C(Cl)=C(Cl)Cl)[N+](=O)[O-])n2nnc3ccccc32)c1` as the compound, how does the TGI read?
Answer: 39.6 µM

Question: With `CN1CCC23c4c5ccc(Oc6nnnn6-c6ccccc6)c4OC2c2[nH]c4ccccc4c2CC3(O)C1C5` (configuration not stated) as the compound, how does the TGI read?
Answer: 24.2 µM

Question: For `C[C@]12CCC(O)CC1=CC[C@@H]1[C@@H]2CC[C@]2(C)C(O)[C@H](n3ccnc3)C[C@@H]12` (some centres not stated), which TGI is on record?
Answer: > 100 µM

Question: Which TGI does the source give for `O=C(CC(O)(C(F)(F)F)C(F)(F)F)C(c1ccccc1)C(O)(C(F)(F)F)C(F)(F)F` (configuration not stated) here?
Answer: > 100 µM

Question: `OC1=C2c3ccccc3NC2Oc2cc(F)ccc21` (configuration not stated) was tested. Which TGI did it give?
Answer: 22.4 µM

System: HOP-62 NSCLC
Assay: NCI anticancer screen, dose series, 48 h

Question: For `CCOc1cccc(C=Nc2ccccc2SSc2ccccc2N=Cc2cccc(OCC)c2O)c1O`, which TGI is on record?
Answer: 30.9 µM

Question: `Cc1c2c(cc3c1C(=O)C(=O)C([C@@H](C)CO)=C3O)C(C)(C)CCC2` was tested. Which TGI did it give?
Answer: > 100 µM

Question: `C[N+]12CCCCC1C(COc1cccc3cccnc13)CCC2` (configuration not stated) was tested. Which TGI did it give?
Answer: > 100 µM

Question: How did the TGI turn out when `Cc1ccc(S(=O)(=O)NC(=O)NCc2ccc(S(N)(=O)=O)cc2)cc1` was run?
Answer: > 100 µM

Question: For `NC(=O)NC1NC(=O)NC1=O` (configuration not stated), which TGI is on record?
Answer: > 100 µM

Question: Which TGI does the source give for `COc1ccccc1C[C@@H]1OC2(C=CC(=O)CC2SC(=O)c2ccccc2)O[C@H]1Cc1ccccc1OC` (some centres not stated) here?
Answer: 3.03 µM

Question: How did the TGI turn out when `COc1ccc(CC2Cc3ccccc3CCN2)cc1OC` (configuration not stated) was run?
Answer: > 50 µM

Question: `CN(C)CCn1c(=O)c2ccc(NCCNCCO)c3c(=O)c4ccccc4n(c1=O)c23` was tested. Which TGI did it give?
Answer: 0.851 µM

Question: For `OCC1OC(NC(=S)NCCC(F)(F)C(F)(F)C(F)(F)C(F)(F)C(F)(F)C(F)(F)F)C(O)C(O)C1O` (configuration not stated), which TGI is on record?
Answer: > 100 µM

Question: For `CSC1=N/C(=C\c2ccc(C)cc2)C(=O)N1`, which TGI is on record?
Answer: > 100 µM

Question: For `COc1cc2c(cc1OCCCNC(=O)c1cc3ccccc3[nH]1)N=C[C@@H]1CCCN1C2=O`, which TGI is on record?
Answer: 21.6 µM

Question: Which TGI does the source give for `COC(=O)/C(C)=N/NC(=S)SC` here?
Answer: > 100 µM

Question: `CC1=CC[C@H](C[C@H](C#CCCCC2OCCO2)O[Si](C(C)C)(C(C)C)C(C)C)C(=O)CC1` was tested. Which TGI did it give?
Answer: > 100 µM

Question: How did the TGI turn out when `CC1=NN(c2cccc(S(=O)(=O)O)c2)C2(C1)C(Cl)C(=O)N2c1nc2ccccc2s1` (configuration not stated) was run?
Answer: 17.9 µM

Question: Which TGI does the source give for `[O-][n+]1nc(N2CCOCC2)nc2ccccc21` here?
Answer: > 100 µM

Question: `COc1ccc(NC(=S)Nc2cc(C)ccn2)cc1` was tested. Which TGI did it give?
Answer: > 100 µM

Question: Which TGI does the source give for `Cc1sc2nc(N(C)C)oc(=O)c2c1C` here?
Answer: > 100 µM

Question: How did the TGI turn out when `Cc1cccc(N/C(=C(/C(Cl)=C(Cl)Cl)[N+](=O)[O-])n2nnc3ccccc32)c1` was run?
Answer: 33.3 µM

Question: How did the TGI turn out when `NC(CSS(=O)(=O)O)=NC1CC2CCC1C2` (configuration not stated) was run?
Answer: > 100 µM

Question: Which TGI does the source give for `CN1CCC23c4c5ccc(Oc6nnnn6-c6ccccc6)c4OC2c2[nH]c4ccccc4c2CC3(O)C1C5` (configuration not stated) here?
Answer: 12.8 µM

Question: For `Cc1cn(C2OC(CO[Si](C)(C)C(C)(C)C)/C(=C\C#N)C2O[Si](C)(C)C(C)(C)C)c(=O)[nH]c1=O` (configuration not stated), which TGI is on record?
Answer: > 100 µM

Question: `CC(C)CCCC(C)[C@H]1CC[C@H]2n3c(nnc3-c3ccccc3)CCC[C@]12C` (some centres not stated) was tested. Which TGI did it give?
Answer: 37.5 µM
